The values below come from patent US11529391B2, “Reversing deficient hedgehog signaling restores deficient skeletal regeneration” (The Board of Trustees of the Leland Stanford Junior …, priority 2017, dated 2022).

Entries after “also recorded” stand apart in the source; their conditions may differ.

One assay relates to mSSCs and BCSPs. Put plainly: FACS count of mSSCs and BCSPs in calluses after Hh antagonism. In kind it is in vivo, mouse. To be noted: post-fracture day 7 calluses of treated versus untreated WT mice. As to the method:
(§1) To verify that Hh antagonism impairs fracture repair in vivo, we administered XL139 to WT mice via oral gavage immediately after injury and assessed healing femur strength at post-fracture week 4 using MST.
Isolation of skeletal progenitor cells. Uninjured femora and fractured femora were harvested at post-fracture days 3, 7, 10, 14, 21, and 28. Fracture calluses were dissected using microscopy. Tissues were crushed with mortar and pestle in collagenase buffer (2.2 mg/ml collagenase, DNase, 1000×1 M CaCl2, 100×p188, 50×1 M Hepes, m199 solvent), and heated to 37° C. for 10 min to activate collagenase. Each sample underwent 3 serial digestions at 37° C. for 25 minutes under gentle agitation. Dissociated cells were filtered through a 40 μm nylon mesh and washed in FACS buffer (2% fetal bovine serum in PBS). Each sample was pelleted at 200 g at 4° C. and resuspended in FACS buffer. Then, each sample was layered onto a histopaque gradient prior to centrifugation at 1400 rpm for 15 minutes at room temperature with zero acceleration. The cloudy interphase was aspirated, washed with FACS buffer, and centrifuged. The cells were stained with fluorochrome-conjugated antibodies against CD45, Ter119, Tie2, αv-integrin, Ly 51, CD105, Thy 1.1, and Thy 1.2 for purification by flow cytometry. Cells were sorted twice (once on “yield,” then on “purity”) to increase purity (BD FACS Aria).

In a further assay the test system is WT mice. Put plainly: Femoral fracture healing after Hh antagonism, Mechanical Strength Testing (MST). In kind it is in vivo, mouse. To be noted: oral gavage immediately after injury, post-fracture week 4, versus untreated. The protocol:
as §1
Femoral fractures. Ten-week old mice were anesthetized with aerosolized isoflurane. Analgesia was administered and the surgical site was prepared prior to skin incision. A medial parapatellar incision was created. The patella was dislocated laterally to expose the femoral condyles. The medullary cavity was reamed using a 25 to 23 G×⅝-inch regular bevel needle (BD) prior to insertion of an intramedullary pin of equal diameter into the medullary cavity. A transverse, middiaphyseal fracture was made using scissors. The pin remained in situ to provide relative stability during healing. The patella was relocated, muscles were reapproximated, and the skin was closed using a 6/0 nylon suture. Animals were radiographed to verify fracture alignment and assess fracture fixation. Animals with fracture displacement were excluded. Pin diameter was adjusted according to femoral cavity lumen diameter to minimize migration.
Mechanical Strength Testing (MST). MST was performed using a delaminator run by R.H. Dauskardt laboratory at Stanford University. […] The maximum load (N) to fracture was recorded (FIG. 9).

Assay [1] deals with post-fracture day 7 WT mSSCs. Briefly: In vitro osteogenesis of mSSCs under Hh antagonism, alizarin red staining. In kind it is cell-based, mouse. To be noted: post-fracture day 7 WT mSSCs treated in vitro. An excerpt: To investigate if Hh signaling is essential for mSSC-dependent osteogenesis, we antagonized Hh signaling in post-fracture day 7 WT mSSCs in vitro using XL139, a small molecule antagonist of Smo.
(§2) Cell culture. Cells were maintained in vitro in Minimum Essential Media (MEM) with 10% FBS and 1% penicillin-streptomycin (Penstrep) under 2% O2/7.5% CO2. Each plate was coated with 0.1% gelatin. Cultured cells were lifted using collagenase II buffer (Sigma-Aldrich). For mSSC colony forming assays, cells were cultured for 2 weeks and colonies were counted using phase microscopy. The cells were lifted for staining and analysis by FACS. Osteogenic differentiation medium consisted of Dulbecco's Modified Eagle Medium with 10% FBS, 100 μg/ml ascorbic acid, and 10 mM-glycerophosphate. mSSCs isolated from P3, WT, and db mice were maintained in either regular media (MEM-alpha medium with 10% FBS, 1% Penstrep) or regular media supplemented with Ihh (R&D, […]), Shh (R&D, 500 pg/mL), or PBS under 2% O2/7.5% CO2 conditions. After 7 days, cells were lifted for staining and analysis by FACS or for RNA extraction and qRT-PCR.

For the next assay, the system named is Ihh expression. Briefly: qRT-PCR of Ihh expression in mSSC and BCSP cultures in supplemented media. In kind it is cell-based, mouse. The protocol:
To determine if high levels of glucose or TNFα could directly repress Hh expression in skeletal niches, we cultured FACS-sorted mSSCs and BCSPs from uninjured P3 WT femora in glucose-supplemented, TNFα-supplemented, or control media for 48 hours. […] Furthermore, neutralization of TNFα with anti-TNFα antibodies restored Ihh expression levels in mSSCs cultured in dbLR serum (FIG. 15).
as §2
Quantitative reverse transcription polymerase chain reaction (qRT-PCR). RNA was isolated from cells using the RNeasy Mini kit (Qiagen) as per manufacturer's instructions. Reverse transcription was performed and gene expression was examined by qRT-PCR using the Applied biosystems Prism 7900HT sequence detection system (Applied Biosystems) and SYBR Green PCR Master Mix (Applied Biosystems). All values were normalized using glyceraldehyde 3-phosphate dehydrogenase for mouse samples and using beta-actin for human samples. Specific primer sequences for genes of interest were obtained from PrimerBank.
A general note: In qPCR the cycle at which signal appears reflects the starting amount.

In the case of `CNCc1ccc(C)c(NC(=O)c2ccc(Nc3nc(-c4ccccc4)c4ccccc4n3)cc2)c1` [XL139], in the assay on mSSCs and BCSPs, the “number of mSSCs and BCSPs” value is listed as “highly significant reduction”. Also, the “healing femur strength (MST)” value with WT mice was “reduced significantly”. Also, the “osteogenic potential of mSSCs (alizarin red staining)” value in assay [1] is “dose-dependent reduction; also recorded: reduces”.
On to TNFα, for which, in the assay on Ihh expression (BCSP-derived cultures from uninjured P3 mice), the “dose dependence of repression of Ihh expression in BCSPs” value was “dose dependent; also recorded: dose-dependent”. Also, the “Ihh expression (qRT-PCR) in BCSP cultures” value with Ihh expression (BCSPs from uninjured P3 WT femora, supplemented media 48 hours versus control media) was “significantly reduced; also recorded: reduces”. In addition, the “Ihh expression (qRT-PCR) in mSSC cultures” value in the assay with Ihh expression (mSSCs from uninjured P3 WT femora, supplemented media 48 hours versus control media) was “significantly reduced; also recorded: significantly diminishes”.
